In US10517877B2, “Compounds and methods for modulating frataxin expression” (Wisconsin Alumni Research Foundation, priority 2016, dated 2019):

Assays:
[1] = tested on: frataxin (FXN) mRNA in GM15850 cells; test: FXN mRNA by RT-PCR in GM15850 FRDA patient cell line; type: cell-based, human; conditions: 1 μM, 24 hours, normalized to TBP, relative to 0.1% DMSO
Text: GM15850 and GM15851 cell lines (Epstein Barr virus transformed human B-lymphocytes) were obtained from the National Institute of General Medical Sciences (NIGMS) Human Genetic Cell Repository at the Coriell Institute for Medical Research, Camden, N.J. The GM15850 cell line was derived from a clinically affected Friedreich's ataxia patient ataxia displaying scoliosis, hypertrophic cardiomyopathy, and slurred speech, and characterized as homozygous for the GAA expansion in the frataxin gene with alleles of approximately 650 and 1030 repeats. The GM15851 cell line was derived from a clinically unaffected individual having two FRDA alleles in the normal range of GAA trinucleotide repeats (from about 6 to about 34 repeats). This clinically unaffected individual is a sibling of the clinically affected patient from which the GM15850 cell line was derived.
Cells were maintained in RPMI 1640 supplemented with 2 mM L-glutamine and 15% fetal bovine serum (FBS) at 37° C. in a humidified atmosphere of 5% CO2. Cell density was maintained between 200,000 cells/mL and 1,000,000 cells/mL. Cell growth and morphology were monitored by phase contrast microscopy and cell viability by trypan blue exclusion. To maintain cell density, cells were passaged by centrifuging at 500g for 3 minutes and resuspending the cells in fresh media. […]

[2] = tested on: FXN protein in GM15851 cells; test: Immunoblot for FXN protein in GM15851 cells; type: cell-based, human; conditions: 24 hours, 1 μM, Agent 4 0.1, 0.5 or 1 μM
Procedure: (§1) In FIG. 3A, “50” refers to GM15850 cells and in FIG. 3B, “51” refers to GM15851 cells. Cells were treated as in Example 4.
(§2) Total cell extracts from cell lines were used for immunoblot analysis. Antibodies to frataxin (abcam ab110328, 1:250 dilution) or alpha-Tubulin (Cell Signaling Technologies 2144, 1:1000 dilution) were used. Signal was detected by chemiluminescence with HRP-conjugated secondary antibodies (Bio-Rad 172-1011, 1:2000 for anti-mouse frataxin and GE NA934V, 1:2000 for anti-rabbit alpha-Tubulin).

[3] = tested on: FXN protein in GM15850 cells; test: Immunoblot for FXN protein in GM15850 cells; type: cell-based, human; conditions: 24 hours, 1 μM, Agent 4 0.1, 0.5 or 1 μM
Procedure: as §1, §2

[4] = tested on: FXN-GAA-Luc reporter cell line; test: Luciferase reporter assay, FXN-GAA-Luc line (~310 GAA repeats); type: cell-based; conditions: 24 hours, Agent 4 at 1 or 2 μM, other treatments 2 μM
Procedure: Treatments are 2 μM unless otherwise indicated. Results are mean±SEM (n=4).

[5] = tested on: cell cycle; conditions: cited from earlier work
[6] = tested on: MYC transcription in MM cells; conditions: MM cells bearing IgH rearrangement at the MYC locus; cited from earlier work

For `Cc1sc2c(c1C)C(c1ccc(Cl)cc1)=N[C@@H](CC(=O)NCCOCCOCCOCCOCCOCCOCCC(=O)NCCCN(C)CCCNC(=O)CCNC(=O)c1cc(NC(=O)c3cc(NC(=O)c4nc(NC(=O)c5cc(NC(=O)CCCNC(=O)c6nc(NC(=O)c7cc(NC(=O)c8cc(NC(=O)c9sccc9Cl)cn8C)cn7C)cn6C)cn5C)cn4C)cn3C)cn1C)c1nnc(C)n1-2` [Control Conjugate 2], the “increase in FXN mRNA levels” value [1] was “no increase” and the “FXN protein (immunoblot)” value [2] was “increase in FXN protein”.

For `Cc1sc2c(c1C)C(c1ccc(Cl)cc1)=N[C@@H](CC(=O)OC(C)(C)C)c1nnc(C)n1-2` [JQ1], the “FXN protein (immunoblot)” value [3] was “Neither polyamide alone (3), nor JQ1, nor the unconjugated treatment induced increased production of FXN protein”, the “increase in FXN mRNA levels” value [1] was “no increase” and the luciferase activity [4] was “Significant activation was not observed”. The cell cycle effect [5] was “known to cause cell cycle arrest” and the MYC transcription [6] was “inhibits MYC transcription in a dose- and time-dependent manner”.
